This is an account of results in patent US20050107356A1, “Combination of a CB1 receptor antagonist and of a product which activates dopaminergic neurotransmission in the brain, the pharmaceutical compositions comprising them and their use in the treatment of parkinson's disease” (Aventis Pharma S.A., priority 2001, published 2005).

Assay type in all cases: in vivo
Assay [1] has as its system Reserpine-treated rats. Nature of the assay: Reserpine-induced akinesia in the rat, locomotor activity; CB1 antagonist i.p. co-administered with quinpirole (D2 dopaminergic agonist). Conditions: CB1 antagonist 1.5 mg/kg i.p., locomotor activity recorded 1 hour. How it is done: (§1) The synergistic effect of the combination of one or more products which activate dopaminergic neurotransmission in the brain and of one or more CB1 antagonists in the treatment of Parkinson's disease was determined in a model of akinesia induced by reserpine in the rat according to the following protocol:
(§2) Male Sprague-Dawley rats were treated with reserpine administered subcutaneously at a dose of 3 mg/kg (1 ml/kg) in order to induce akinesia in the animal. 18 hours after this treatment, the locomotor activity of these animals was measured and recorded using an automatic system (Videotrack, France). The locomotion, expressed in centimeters, is estimated by a mean overall distance covered during this period (n=11-38 rats per group). The statistical analysis is carried out by a variance analysis and a post-hoc comparison (if appropriate) using a Mann-Whitney or Dunnett test. A significant effect is recorded for p<0.05.
(§3) The results for the ip administration of the CB1 antagonists (Table 1) are expressed as percentage of increase with respect to the activity of quinpirole and as percentage of decrease with respect to the activity of a very strong dose of levodopa.
The combination of a CB1 receptor antagonist and of a D2 dopaminergic agonist (quinpirole) is produced in the following way: […]

Assay [2] has as its system Reserpine-treated rats. Nature of the assay: Reserpine-induced akinesia in the rat, locomotor activity; CB1 antagonist po one hour before C1-APB (SKF 82958, D1 dopaminergic agonist). The note with it: recorded 1 hour. How it is done:
as §1, §2
(§4) The studies by the oral route are carried out in a hydrophobic formulation solvent Labrafil/Labrasol (40/60%, w/w). These products are administered (in a volume of 1 ml/kg) one hour before the dopaminergic agonist. The recording of the locomotor activity begins 5 min after the intraperitoneal injection of the dopaminergic agonist and lasts 1 hour. The D1 dopaminergic agonist is 0.3 mg/kg C1-APB. The D2 dopaminergic agonist is 0.1 mg/kg quinpirole.

In assay [3] the test system is Reserpine-treated rats. Nature of the assay: Reserpine-induced akinesia in the rat, locomotor activity; CB1 antagonist po one hour before quinpirole (D2 dopaminergic agonist). The note with it: recorded 1 hour. How it is done: as §1, §2, §4
Assay [4] concerns Reserpine-treated rats. Nature of the assay: Reserpine-induced akinesia in the rat, locomotor activity; CB1 antagonist i.p. co-administered with a strong dose of levodopa + benserazide (dyskinesia model). The note with it: CB1 antagonist 3 mg/kg i.p., levodopa + benserazide 50 mg/kg, recorded 2.5 hours. How it is done:
as §1, §2, §3
The combination of a CB1 receptor antagonist and of a strong dose of levodopa (dyskinesia model) is produced in the following way: […]

Marks after values point to notes of the source that are not given here.

`CS(=O)(=O)C(=C1CN(C(c2ccc(Cl)cc2)c2ccc(Cl)cc2)C1)c1cc(F)cc(F)c1` [Example 1, 1-[bis(4-chlorophenyl)methyl]-3-[(3,5-difluorophenyl)(methylsulfonyl)methylene]azetidine]: the “Combination with quinpirole (62.5 μg/kg ip): percentage of increase with respect to the activity of quinpirole” value in the assay with Reserpine-treated rats [1] is “+125%***”. Also, the figures for the “Combination with C1-APB (0.3 mg/kg ip): percentage of decrease with respect to the activity of a strong dose of C1-APB” value with Reserpine-treated rats [2] (CB1 antagonist 1 mg/kg po), in the assay on Reserpine-treated rats [2] (CB1 antagonist 3 mg/kg po) and with Reserpine-treated rats [2] (CB1 antagonist 10 mg/kg po) were −33% NS, −67%** and −62%**, respectively. In addition, the “Combination with quinpirole (0.1 mg/kg ip): percentage of increase with respect to the activity of quinpirole” value with Reserpine-treated rats [3] (CB1 antagonist 1 mg/kg po) is “+33% NS”; in the assay on Reserpine-treated rats [3] (CB1 antagonist 3 mg/kg po) it was “+58%**”; in the assay on Reserpine-treated rats [3] (CB1 antagonist 10 mg/kg po), “+23% NS”. In addition, the “Combination with levodopa (120 mg/kg ip): percentage of decrease with respect to the activity of a very strong dose of levodopa” value with Reserpine-treated rats [4] was −42%*.
